Test results: article PMC3169413 (Acta Crystallographica Section F: Structural Biology and …, 2011)

Key:
[1] = target: FumC (fumarate hydratase) from R. prowazekii (Rickettsia prowazekii, UniProt Q9ZCQ4); conditions: active site; product analog; from crystallization precipitant, 1.4 M sodium malonate pH 6.0, 289 K; one malonate per protomer
[2] = target: the molecule itself; experiment: crystal structure

Molecule	X-ray crystal structure, 2.4 A [1]	binding result [2]
O=C(O)CC(=O)O [malonate]	The R. prowazekii FumC structure was determined in complex with the product analog malonate.	–
fumarate hydratase (FumC) from Rickettsia prowazekii strain Madrid E (enzyme, also called fumarase; class II fumarate hydratase) MKNYRIESDSFGEIQIEEKFYWGAQTQRSLNNFKISKQKMPKILIRALAILKKCAAQVNYEFGDLEYKIATSIDKAIDRILAGEFEDNFPLVVWQTGSGTQTNMNMNEVIASIANEELTGKKGGKFPVHPNDHVNKGQSSNDSFPTAMHIATVLATKQQLIPALNNLLTYLQDKSKDWDKIIKIGRTHLQDATPLTLKQEFSGYITQIEYALERIEDALKKVYLLAQGGTAVGTGINSKIGFDIKFAQKVAEFTQQPFKTAPNKFESLAAHDALVEFSGTLNTIAVSLMKIANDIRLLGSGPRCGLGELHLPENEPGSSIMPGKVNPTQVEALTMVCTQVMGNHVTVTIAGSNGHLELNVFKPVIIYNILQSIELLSDSVNSFVTHCVKGLEPNIARINTLRDKSLMLVTVLNPHIGYDNAAKIAKEAHKYGITLKEAAKKLNFLSEEEFDKIVVPEKMIS	–	binds
